Assay results reported in patent US20090274691A1, “Use of CD25 binding molecules in steroid-resistant patients” (priority 2001, published 2009).
Where two headings read alike, the source gives them in different places.

Columns and labels:
[1] = test system: phytohaemagglutinin stimulated lymphocytes; experiment: Lymphocyte steroid sensitivity (Imax) with and without basiliximab, 32 subjects (Example 2); type: cell-based, human; conditions: 32 subjects on 41 occasions; basiliximab 1 mg/L where added
Procedure: Peripheral blood lymphocytes are isolated from 32 subjects (25 healthy volunteers and 7 patients with quiescent Ulcerative Colitis), on 41 occasions, using buoyant density centrifugation. Lymphocyte steroid sensitivity is assessed by measuring the antiproliferative effect of dexamethasone (DEX) on phytohaemagglutinin stimulated lymphocytes. Maximum steroid induced suppression is expressed as a % of control lymphocyte proliferation (Imax). Imax is measured in the absence and presence of basiliximab (1 mg/L).

[2] = test system: PHA-stimulated lymphocytes; experiment: Lymphocyte steroid sensitivity: dexamethasone inhibition of PHA-stimulated proliferation with and without basiliximab (Example 1); type: cell-based, human; conditions: for Steroid-sensitive (SS) or Steroid-resistant (SR): class by Imax with dexamethasone alone; for PHA-stimulated lymphocyte proliferation (cpm): dexamethasone 10^-6 mol/l; for PHA-stimulated lymphocyte proliferation (cpm) / % suppression / Imax (%): basiliximab 1 mg/l where added; for % suppression: dexamethasone 10^-7 mol/l; for Imax (%): inhibition of proliferation at dexamethasone 10^-6 mol/l
Procedure: Measurement of lymphocyte steroid sensitivity: The sensitivity of peripheral blood lymphocytes to glucocorticoids is assessed in a functional assay i.e. an in vitro proliferation assay stimulated by phytohaemagglutinin (PHA) and inhibited by dexamethasone. (Hearing S D, et al. Gut 1999; 45:382-8; Hearing S D, et al. J Clin Endocrinol Metab 1999; 84:4149-54). Peripheral blood samples are collected at 09:00 hours, and peripheral blood mononuclear cells (PBMC) are separated by buoyancy centrifugation. Buoyancy centrifugation includes the separation of lymphocytes from the blood sample by centrifugation over a ficol gradient. Ficol allows red blood cells to fall through, but prevents the through-movement of lymphocytes. Peripheral blood mononuclear cells (lymphocytes and marocyes) are collected from the ficol/plasma interface. PBMC proliferation is stimulated with PHA and inhibited with dexamethasone at serial 10 fold dilutions between 10^−6 and 10^−10 mol/1. i.e. 10^−6, 10^−7, 10^−8, 10^−9, 10^−10 mol/1. Cell proliferation is measured by tritiated thymidine uptake i.e. after 2 days of incubation, radioisotape labelled thymidine (^3H-thymidine) is added to the lymphocyte culture medium and became incorporated into the DNA of proliferating lymphocyes. After 6 hours the cells are transferred from the incubator and collected on a filter mat using a cell harvester. The cells are then washed out of the well. The lymphocyte DNA that has incorporated the thymidine is trapped in the filter paper. When radioactivity levels are measured the wells which contain high numbers of actively proliferating lymphocytes (and thus will have incorporated lots of thymidine into the DNA) will have high radioactivity levels. […] The results are calculated as mean counts per minute (cpm) of triplicate cultures. Thymidine incorporation for each concentration of dexamethasone is compared to that of PHA stimulated T lymphocytes in the absence of dexamethasone, and expressed as a percentage of the uninhibited positive control. The effect of different concentrations of basiliximab on lymphocyte proliferation is also studied. In addition, an equal concentration of basiliximab is added to each cell culture medium at all concentrations of dexamethasone and the antiproliferative effect measured.
Effect of […]® on steroid sensitivity: For all eight subjects, PHA-stimulated lymphocytes are cultured in the presence of increasing concentrations of dexamethasone (10^−10-10^−6 mol/l) in the presence and absence of basiliximab (1 mg/l). In previous studies of ulcerative colitis carried out by the inventor, maximal suppression (Imax)<60% correlated with a poor response to steroid therapy (clinical steroid resistance). The exact value of Imax cannot be measured as it is the inhibition at an infinitely high level of dexamethasone. Thus, the percentage inhibition of proliferation observed at the maximum dexamethasone concentration applied (10^−6 mol/l) is used as the measure of Imax. In practice, there is good agreement between Imax and the estimated asymptotic value for maximal inhibition obtained from dose-response curves (Hearing S D et al (1999) Clin. Endoctrinol. Metab 84:4149-54). A concentration of dexamethasone of 10^−7 mol/l is approximately equivalent in terms of glucocorticoid activity to the serum concentrations of hydrocortisone achieved with intravenous therapy at standard doses. Thus, to make comparisons with the potential effect of basiliximab in vivo, the steroid sensitising effect of basiliximab at this concentration of dexamethasone may also be of interest. […] The subjects are shown in decreasing order of steroid sensitivity (with the most sensitive on the left).

steroid-resistant asthma = conditions: after 8 weeks; cited from earlier work
[3] = test system: peripheral blood lymphocytes; conditions: high concentrations of prednisolone, cited from earlier work
[4] = at the dosage levels employed; cited from earlier work

## C[C@@H]1C[C@H]2[C@@H]3CCC4=CC(=O)C=C[C@]4(C)[C@@]3(F)[C@@H](O)C[C@]2(C)[C@@]1(O)C(=O)CO [Dexamethasone, dexamethasone]
[1]
  Median Imax (%): 78.0%
[2]; subject 1
  Steroid-sensitive (SS) or Steroid-resistant (SR): SS (steroid-sensitive (Imax>60%; subjects 1-4))
  PHA-stimulated lymphocyte proliferation (cpm): 3100 cpm
  % suppression: 87%
  Imax (%): 92%
[2]; subject 2
  Steroid-sensitive (SS) or Steroid-resistant (SR): SS (steroid-sensitive (Imax>60%; subjects 1-4))
  PHA-stimulated lymphocyte proliferation (cpm): 4109 cpm
  % suppression: 79%
  Imax (%): 84%
[2]; subject 3
  Steroid-sensitive (SS) or Steroid-resistant (SR): SS (steroid-sensitive (Imax>60%; subjects 1-4))
  PHA-stimulated lymphocyte proliferation (cpm): 9477 cpm
  % suppression: 65%
  Imax (%): 77%
[2]; subject 4
  Steroid-sensitive (SS) or Steroid-resistant (SR): SS (steroid-sensitive (Imax>60%; subjects 1-4))
  PHA-stimulated lymphocyte proliferation (cpm): 11568 cpm
  % suppression: 42%
  Imax (%): 64%
[2]; subject 5
  Steroid-sensitive (SS) or Steroid-resistant (SR): SR (steroid-resistant (Imax<60%; subjects 5-8))
  PHA-stimulated lymphocyte proliferation (cpm): 21685 cpm
  % suppression: 20%
  Imax (%): 52%
[2]; subject 6
  Steroid-sensitive (SS) or Steroid-resistant (SR): SR (steroid-resistant (Imax<60%; subjects 5-8))
  PHA-stimulated lymphocyte proliferation (cpm): 36495 cpm
  % suppression: 32%
  Imax (%): 45%
[2]; subject 7
  Steroid-sensitive (SS) or Steroid-resistant (SR): SR (steroid-resistant (Imax<60%; subjects 5-8))
  PHA-stimulated lymphocyte proliferation (cpm): 18669 cpm
  % suppression: 29%
  Imax (%): 35%
[2]; subject 8
  Steroid-sensitive (SS) or Steroid-resistant (SR): SR (steroid-resistant (Imax<60%; subjects 5-8))
  PHA-stimulated lymphocyte proliferation (cpm): 24681 cpm
  % suppression: 36%
  Imax (%): 33%

## CN(Cc1cnc2nc(N)nc(N)c2n1)c1ccc(C(=O)N[C@@H](CCC(=O)O)C(=O)O)cc1 [methotrexate]
steroid-resistant asthma
  bronchial muscosal inflammation: reduced
  lymphocyte steroid sensitivity: increased

## C[C@]12C=CC(=O)C=C1CC[C@@H]1[C@@H]2[C@@H](O)C[C@@]2(C)[C@H]1CC[C@]2(O)C(=O)CO [prednisolone]
[3]; lymphocytes of steroid-resistant SLE group
  percentage of apoptotic cells: 44.8%
[3]; lymphocytes of steroid-sensitive SLE group
  percentage of apoptotic cells: 68.8%

## daclizumab
[4]
  Side-effects / safety of administration: safe
